In patent US11878973B2, “Bicyclic compounds and their uses” (NOVARTIS AG, priority 2021, dated 2024) one finds GI50 and IC50 data, which are given here for 14 compounds.

Read-outs that look alike come from different tables or passages of the source.

One assay deals with SW48 cells. The assay can be described thus: Proliferation assay SW48 (CellTiterGlo, 96 hours). (In ATP-based viability assays light output follows the ATP content of the culture.)
The next assay concerns DLD1-WRN-KO cells. Briefly: Proliferation assay DLD1-WRN-KO (CellTiterGlo, 96 hours; off-target effects). Particulars: read-out: Proliferation Assay DLD1-WRN-KO (GI50).
The next assay has as its target WRN helicase (Homo sapiens (Human), UniProt Q14191). Briefly: In vitro enzymatic activity assay on WRN helicase (DNA dependent ATPase assay, ADP-Glo). The class given is biochemical. Particulars: geometric means of at least 2 determinations; read-out: WRN ATPase Activity (IC50). The text has this:
An ATPase assay was set up to measure the DNA dependent ATP hydrolysis activity of WRN helicase. This assay was used also to assess the inhibition properties of compounds of the invention on DNA dependent WRN ATPase activity.
The core helicase motif of the WRN protein (aa N517-P1238) was produced for this assay (protein production as described above). […] The ADP-Glo assay kit (Promega, Madison, WI) allowing the quantification of ADP produced in ATP hydrolysis reactions was used for setting up this assay.
Time course experiments were first performed in order to determine the best enzymatic assay conditions (including buffer conditions, reaction time and concentrations of protein, ATP and DNA substrates). A typical reaction consists of 10 nM WRN protein, 0.2 nM FLAP26, and 300 micromolar ATP in the following assay buffer: 30 mM Tris pH7.5, 2 mM MgCl2, 0.02% BSA, 50 mM NaCl, 0.1% pluronic F127 prepared in DNAse free water. To evaluate the inhibition properties of compounds of the invention, serial dilutions were prepared in DMSO (10 half log dilutions from a 10 mM DMSO solution). […] The reaction was started by addition of 2.5 microliters of FLAP26 at 0.4 nM and incubated for 30 minutes at room temperature. The reaction was stopped with the addition of 5 microliters of the first ADP-Glo reagent and incubated for one hour to remove the excess amount of ATP. Afterwards, 10 microliters of ATP detection reagent was added and incubated for an additional hour before reading. Luminescence output was recorded using Tecan 1000 reader, with 5 minutes delay before reading. Each concentration of compound was tested in duplicates in the assay plate.
Following normalization of activity values for the wells to % inhibition (% inhibition=[(high control-sample)/(high control-low control)]×100), IC50 fitting was carried out from the duplicate determinations present on each plate according to [4]. Data analysis can also be carried out using commercially available software designed to derive IC50 values using 4-parameter fits (e.g. GraphPad Prism, XL fit). The reported IC50 values are the geometrical means of at least 2 independent replicates.
For orientation: In ADP-Glo the light output rises with the ADP produced.

[1] abbreviates: Homo sapiens, SW48, read-out: Proliferation Assay SW48 (GI50).
Setting [2] is: read-out: Proliferation Assay SW48 (GI50), SW48 cell line, geometric means of at least 2 determinations.
Setting [3] is: DLD1-WRN-KO cell line, geometric means of at least 2 determinations.

Sequence of WRN helicase (Q14191 517-1238): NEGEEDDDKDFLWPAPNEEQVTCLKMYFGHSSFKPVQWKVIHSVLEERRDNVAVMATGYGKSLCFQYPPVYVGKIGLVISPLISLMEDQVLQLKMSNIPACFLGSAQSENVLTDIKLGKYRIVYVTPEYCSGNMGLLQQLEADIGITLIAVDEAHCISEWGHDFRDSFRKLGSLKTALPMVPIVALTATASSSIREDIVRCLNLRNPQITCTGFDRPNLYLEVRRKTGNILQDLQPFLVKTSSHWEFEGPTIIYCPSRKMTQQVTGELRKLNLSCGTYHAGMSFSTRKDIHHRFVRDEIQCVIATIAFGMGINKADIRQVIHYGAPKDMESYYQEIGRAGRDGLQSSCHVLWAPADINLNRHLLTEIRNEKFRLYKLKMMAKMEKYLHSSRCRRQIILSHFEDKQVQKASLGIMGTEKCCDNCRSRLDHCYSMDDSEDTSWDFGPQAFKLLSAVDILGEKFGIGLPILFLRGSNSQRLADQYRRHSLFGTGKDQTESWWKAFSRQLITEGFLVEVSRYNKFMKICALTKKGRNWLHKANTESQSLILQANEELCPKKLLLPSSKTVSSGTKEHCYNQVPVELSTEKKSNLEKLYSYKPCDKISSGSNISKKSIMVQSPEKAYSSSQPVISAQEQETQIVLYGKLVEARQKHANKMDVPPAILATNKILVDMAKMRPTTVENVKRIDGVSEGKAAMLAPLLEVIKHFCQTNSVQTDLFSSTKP

For the compound `CCc1c(N2CCN(C(=O)c3ncccc3O)CC2)c(=O)n2nc(N3CCCC(F)C3)nc2n1CC(=O)Nc1cc(Cl)c(C(F)(F)F)cc1C` (racemic) [Example 13, rac-N-(5-chloro-2-methyl-4-(trifluoromethyl)phenyl)-2-(5-ethyl-2-(3-fluoropiperidin-1-yl)-6-(4-(3-hydroxypicolinoyl)piperazin-1-yl)-7-oxo-[1,2,4]triazolo[1,5-a]pyrimidin-4(7H)-yl)acetamide], the GI50 in the assay on SW48 cells (setting [1]) was 160 nM; in the assay with DLD1-WRN-KO cells (Homo sapiens) it was 5200 nM. The concentration for half-maximal inhibition (IC50) (usually the concentration needed to halve the response being measured) on WRN helicase turned out to be 30 nM.

With `CCc1c(N2CCN(C(=O)c3ncccc3O)CC2)c(=O)n2nc(N3CCCC(F)C3)nc2n1CC(=O)Nc1ccc(C(F)(F)F)cc1C` (racemic) [Example 14, rac-2-(5-ethyl-2-(3-fluoropiperidin-1-yl)-6-(4-(3-hydroxypicolinoyl)piperazin-1-yl)-7-oxo-[1,2,4]triazolo[1,5-a]pyrimidin-4(7H)-yl)-N-(2-methyl-4-(trifluoromethyl)phenyl)acetamide], the GI50 is 480 nM in the assay on SW48 cells (setting [1]) and > 10000 nM in the assay on DLD1-WRN-KO cells (Homo sapiens). Also, the half-inhibitory concentration (IC50) at WRN helicase turned out to be 140 nM.

Turning to `CCc1c(N2CCN(C(=O)c3ncccc3O)CC2)c(=O)n2nc(N3CCCC(F)C3)nc2n1CC(=O)Nc1ccc(C(F)(F)F)cc1Cl` (racemic) [Example 15, rac-N-(2-chloro-4-(trifluoromethyl)phenyl)-2-(5-ethyl-2-(3-fluoropiperidin-1-yl)-6-(4-(3-hydroxypicolinoyl)piperazin-1-yl)-7-oxo-[1,2,4]triazolo[1,5-a]pyrimidin-4(7H)-yl)acetamide], the GI50 was 440 nM in the assay on SW48 cells (setting [1]) and > 10000 nM in the assay with DLD1-WRN-KO cells (Homo sapiens). For the same compound, the IC50 at WRN helicase stood at 110 nM.

Take `CCc1c(N2CCN(C(=O)c3ncccc3O)CC2)c(=O)n2nc(N3CCCC(F)C3)nc2n1CC(=O)Nc1ccc(C(F)(F)F)nc1Cl` (racemic) [Example 16, rac-N-(2-chloro-6-(trifluoromethyl)pyridin-3-yl)-2-(5-ethyl-2-(3-fluoropiperidin-1-yl)-6-(4-(3-hydroxypicolinoyl)piperazin-1-yl)-7-oxo-[1,2,4]triazolo[1,5-a]pyrimidin-4(7H)-yl)acetamide]: the results for the GI50 with SW48 cells (setting [1]) and in the assay with DLD1-WRN-KO cells (Homo sapiens) were 320 nM and > 10000 nM, respectively. Also, the half-maximal inhibitory concentration (IC50) on WRN helicase came to 230 nM.

For `CCc1c(N2CCN(C(=O)c3ncccc3O)CC2)c(=O)n2nc(C3=CCC(OC)CC3)nc2n1CC(=O)Nc1ccc(C(F)(F)F)nc1C` (racemic) [Example 26, rac-2-(5-ethyl-6-(4-(3-hydroxypicolinoyl)piperazin-1-yl)-2-(4-methoxycyclohex-1-en-1-yl)-7-oxo-[1,2,4]triazolo[1,5-a]pyrimidin-4(7H)-yl)-N-(2-methyl-6-(trifluoromethyl)pyridin-3-yl)acetamide], the results for the GI50 in the assay on SW48 cells (setting [1]) and in the assay with DLD1-WRN-KO cells (Homo sapiens) were 80 nM and > 10000 nM, respectively. On WRN helicase, the IC50 came out at 250 nM.

In the case of `CCc1c(N2CCN(C(=O)c3ncccc3O)CC2)c(=O)n2nc(C3=CCC(OC)CC3)nc2n1CC(=O)Nc1ccc(C(F)(F)F)cc1C` (racemic) [Example 80, rac-2-(5-ethyl-6-(4-(3-hydroxypicolinoyl)piperazin-1-yl)-2-(4-methoxycyclohex-1-en-1-yl)-7-oxo-[1,2,4]triazolo[1,5-a]pyrimidin-4(7H)-yl)-N-(2-methyl-4-(trifluoromethyl)phenyl)acetamide], the GI50 in the assay on SW48 cells (setting [1]) is 70 nM; in the assay on DLD1-WRN-KO cells (Homo sapiens), > 10000 nM. At WRN helicase, the IC50 worked out at 60 nM.

With `CCc1c(N2CCN(C(=O)c3ncccc3O)CC2)c(=O)n2nc(C3=CCC(F)CN3)nc2n1CC(=O)Nc1ccc(C(F)(F)F)cc1C` (racemic) [Example 111, rac-2-(5-ethyl-2-(5-fluoro-1,4,5,6-tetrahydropyridin-2-yl)-6-(4-(3-hydroxypicolinoyl)piperazin-1-yl)-7-oxo-[1,2,4]triazolo[1,5-a]pyrimidin-4(7H)-yl)-N-(2-methyl-4-(trifluoromethyl)phenyl)acetamide], the GI50 with SW48 cells (setting [1]) was 1120 nM; with DLD1-WRN-KO cells (Homo sapiens) it was > 10000 nM. In addition, the IC50 on WRN helicase was found to be 330 nM.

Regarding `CCc1c(N2CCN(C(=O)c3ncccc3O)CC2)c(=O)n2nc(N3CCC[C@@H](F)C3)nc2n1CC(=O)Nc1ccc(C(F)(F)F)cc1Cl` (single isomer, unassigned) [Example 15a, ((R)—N-(2-chloro-4-(trifluoromethyl)phenyl)-2-(5-ethyl-2-(3-fluoropiperidin-1-yl)-6-(4-(3-hydroxypicolinoyl)piperazin-1-yl)-7-oxo-[1,2,4]triazolo[1,5-a]pyrimidin-4(7H)-yl)acetamide) or ((S)—N-(2-chloro-4-(trifluoromethyl)phenyl)-2-(5-ethyl-2-(3-fluoropiperidin-1-yl)-6-(4-(3-hydroxypicolinoyl)piperazin-1-yl)-7-oxo-[1,2,4]triazolo[1,5-a]pyrimidin-4(7H)-yl)acetamide)], the results for the GI50 in the assay with SW48 cells (setting [2]) and in the assay on DLD1-WRN-KO cells (setting [3]) were 400 nM and > 10000 nM, respectively. On WRN helicase, the IC50 worked out at 140 nM.

For the compound `CCc1c(N2CCN(C(=O)c3ncccc3O)CC2)c(=O)n2nc(N3CCC[C@@H](F)C3)nc2n1CC(=O)Nc1ccc(C(F)(F)F)cc1Cl` (single isomer, unassigned) [Example 15b, ((R)—N-(2-chloro-4-(trifluoromethyl)phenyl)-2-(5-ethyl-2-(3-fluoropiperidin-1-yl)-6-(4-(3-hydroxypicolinoyl)piperazin-1-yl)-7-oxo-[1,2,4]triazolo[1,5-a]pyrimidin-4(7H)-yl)acetamide) or ((S)—N-(2-chloro-4-(trifluoromethyl)phenyl)-2-(5-ethyl-2-(3-fluoropiperidin-1-yl)-6-(4-(3-hydroxypicolinoyl)piperazin-1-yl)-7-oxo-[1,2,4]triazolo[1,5-a]pyrimidin-4(7H)-yl)acetamide)], the GI50 with SW48 cells (setting [2]) was 360 nM; in the assay with DLD1-WRN-KO cells (setting [3]) it was > 10000 nM. On WRN helicase, the IC50 worked out at 120 nM.

`CCc1c(N2CCN(C(=O)c3nccc(Cl)c3O)CC2)c(=O)n2nc(C3=CC[C@H](OC)CC3)nc2n1CC(=O)Nc1ccc(C(F)(F)F)nc1Cl` (single isomer, unassigned) [Example 24a]: the GI50 in the assay on SW48 cells (setting [2]) is 40 nM; in the assay with DLD1-WRN-KO cells (setting [3]) it was > 10000 nM. The IC50 on WRN helicase was determined as 110 nM.

Turning to `CCc1c(N2CCN(C(=O)c3ncnc(C)c3O)CC2)c(=O)n2nc(C3=CCOCC3)nc2n1CC(=O)Nc1ccc(C(F)(F)F)cc1Cl` [Example 42, N-(2-chloro-4-(trifluoromethyl)phenyl)-2-(2-(3,6-dihydro-2H-pyran-4-yl)-5-ethyl-6-(4-(5-hydroxy-6-methylpyrimidine-4-carbonyl)piperazin-1-yl)-7-oxo-[1,2,4]triazolo[1,5-a]pyrimidin-4(7H)-yl)acetamide], in the assay with SW48 cells (setting [1]), the GI50 turned out to be 50 nM.

For `[2H]C([2H])(C(=O)Nc1ccc(C(F)(F)F)cc1Cl)n1c(CC)c(N2CCN(C(=O)c3ncnc(C)c3O)CC2)c(=O)n2nc(C3=CCOCC3)nc12` [Example 43, N-(2-chloro-4-(trifluoromethyl)phenyl)-2-(2-(3,6-dihydro-2H-pyran-4-yl)-5-ethyl-6-(4-(5-hydroxy-6-methylpyrimidine-4-carbonyl)piperazin-1-yl)-7-oxo-[1,2,4]triazolo[1,5-a]pyrimidin-4(7H)-yl)acetamide-2,2-d2], the GI50 with SW48 cells (setting [1]) worked out at 50 nM.

As to `Cc1c(N2CCN(C(=O)c3ncccc3O)CC2)c(=O)n2nc(C3=CCN(C(=O)OC(C)(C)C)CC3)nc2n1CC(=O)Nc1ccc(C(F)(F)F)cc1` [Example 126, tert-butyl 4-(6-(4-(3-hydroxypicolinoyl)piperazin-1-yl)-5-methyl-7-oxo-4-(2-oxo-2-((4-(trifluoromethyl)phenyl)amino)ethyl)-4,7-dihydro-[1,2,4]triazolo[1,5-a]pyrimidin-2-yl)-3,6-dihydropyridine-1(2H)-carboxylate], on WRN helicase, the IC50 was 130 nM.

Consider `[2H]C1([2H])N(C(=O)c2ncnc(C)c2O)C([2H])([2H])C([2H])([2H])N(c2c(CC)n(CC(=O)Nc3ccc(C(F)(F)F)cc3Cl)c3nc(C4=CCOCC4)nn3c2=O)C1([2H])[2H]` [Example 133, N-(2-chloro-4-(trifluoromethyl)phenyl)-2-(2-(3,6-dihydro-2H-pyran-4-yl)-5-ethyl-6-(4-(5-hydroxy-6-methylpyrimidine-4-carbonyl)piperazin-1-yl-2,2,3,3,5,5,6,6-d8)-7-oxo-[1,2,4]triazolo[1,5-a]pyrimidin-4(7H)-yl)acetamide], for which the GI50 in the assay with SW48 cells (setting [1]) was 60 nM.
